tested on: Human RSV-A (“Long” strain); assay: RSV in vitro cytoprotection assay in HEp-2 cells (ATPlite readout); format: cell-based; conditions: human respiratory syncytial virus, 96 h; HEp-2 cells, 4-day incubation, ATPlite; read-out: Human RSV-A (“Long” strain) EC50
From the text: RSV is a single stranded negative sense RNA virus that causes respiratory tract infections which can be dangerous to infants, the elderly, and immunosuppressed individuals. Currently there is no vaccine, and therapeutic options are both costly and of limited effectiveness. These approved treatments are Ribavirin, and Palivizumab/Synagis (a monoclonal antibody). RSV has two genotypes, A and B, which differ primarily in the structure of the virus' surface “G” attachment protein. Our current primary screen focusses on RSV-A and uses an in vitro cytoprotection assay where compounds are added in 2-fold dilutions to cells which are then subjected to fully replicative viral particles. Cell viability is measured several days later along with separate measurements of compound cytotoxicity. This report focuses on the results of our most recent screening of compounds.
HEp-2 cells, (originally derived from tumors grown in irradiated-cortisonised weanling rats that had been injected with epidermoid carcinoma tissue from a person's larynx, but later found to be indistinguishable from HeLa cells by PCR DNA analysis), were used for the culturing of genotype A, “Long” strain RSV. Flasks were inoculated with RSV and viral stocks were collected once cytopathic effect (CPE) was greater than 90%. Viral stocks in 25% sucrose media were snap frozen using liquid nitrogen to increase viral stability. Viral stock titers were quantified by tissue culture infectious dose 50% (TCID50) using 8,000 cells per well and 3-fold viral dilutions across a 96-well plate, cultured for 4 days.
Following extensive parameter testing, the final assay is run as follows: HEp-2 cells are seeded into the inner 60 wells of a 96-well plate at 8,000 cells per well in a volume of 50 μL using Growth Media (DMEM without phenol red, 1% L-Glut, 1% Penn/Strep, 1% nonessential amino acids, 10% FBS). 2-Fold serial dilutions of control and test compounds are added to the wells in duplicate in a total volume of 25 μL. Viral stock is then added to the wells in a volume of 25 μL, bringing the total volume of each well to 100 μL. Each 96-well plate has a control column of 6 wells with cells and virus but no compound (negative control, max CPE), a column with cells but no compound or virus (positive control, minimum CPE), and a column with no cells or virus or compound (background plate/reagent control). The control wells with cells but no virus are given an additional 25 uL of growth media containing an equal quantity of sucrose as those wells receiving the viral stock in order to keep consistent in media and volume conditions. The outer wells of the plate are filled with 125 μL of growth media to act as a thermal and evaporative moat around the test wells. Following a 4-day incubation period, the plates are read using ATPlite (50 uL added per well), which quantifies the amount of ATP (a measure of cell health) present in each well. Assay plates are read using the Envision luminometer. In parallel, cytotoxicity is examined on an additional 96-well plate treated in an identical manner, but substituting the 25 μL of viral stock for 25 μL of growth media. […] EC50 ranges are as follows: A<0.01 μM; B 0.01-0.05 μM; C>0.05 μM.

Row | SMILES | EC50
1 | Cc1ccc(C(=O)Nc2ccc(C(=O)N3CCc4cc(C(=O)Nc5c(F)cccc5C(F)(F)F)sc4-c4ncccc43)cc2)c(N2CC3(CCOCC3)C2)n1 [Example 45] | < 10 nM
2 | O=C(Nc1c(F)cccc1F)c1cc2c(s1)-c1cnccc1N(C(=O)c1ccc(NC(=O)c3cccnc3N3CC4(CCOCC4)C3)cc1)CC2 [Example 51] | 10 to 50 nM
3 | O=C(Nc1ccc(C(=O)N2CCc3cc(-c4nc5ccccc5[nH]4)sc3-c3ncc(F)cc32)cc1)c1cccnc1N1CC2(CCOCC2)C1 [Example 54] | 10 to 50 nM
4 | O=C(Nc1c(F)cc(F)cc1F)c1cc2c(s1)-c1ncc(F)cc1N(C(=O)c1ccc(NC(=O)c3cccnc3N3CC4(CCOCC4)C3)cc1)CC2 [Example 56] | < 10 nM
5 | O=C(Nc1ccc(C(=O)N2CCc3cc(-c4nc5cccc(C(F)(F)F)c5[nH]4)sc3-c3ncc(F)cc32)cc1)c1cccnc1N1CC2(CCOCC2)C1 [Example 60] | 10 to 50 nM
6 | O=C(Nc1c(F)cccc1C(F)(F)F)c1cc2c(s1)-c1ncc(F)cc1N(C(=O)c1ccc(NC(=O)c3cccnc3N3CC4(CCOCC4)C3)cc1)CC2 [Example 62] | < 10 nM
7 | Cc1cnc(N2CC3(CCOCC3)C2)c(C(=O)Nc2ccc(C(=O)N3CCc4cc(C(=O)Nc5c(F)cc(F)cc5Cl)sc4-c4ncc(F)cc43)cc2)c1 [Example 65] | < 10 nM
8 | Cc1cnc(N2CC3COCC3C2)c(C(=O)Nc2ccc(C(=O)N3CCc4cc(-c5nc6ccccc6[nH]5)sc4-c4ncc(F)cc43)cc2)c1 (stereo not shown) [Example 68] | 10 to 50 nM
9 | Cc1cnc(N2CC3COCC3C2)c(C(=O)Nc2ccc(C(=O)N3CCc4cc(C(=O)Nc5c(F)cccc5F)sc4-c4ncc(F)cc43)cc2)c1 (stereo not shown) [Example 69] | 10 to 50 nM
10 | Cc1cnc(N2CC3(CCOCC3)C2)c(C(=O)Nc2ccc(C(=O)N3CCc4c(sc(C(=O)Nc5c(C)cccc5F)c4F)-c4ncccc43)cc2)c1 [Example 73] | < 10 nM
11 | Cc1cnc(N2CC3(CCOCC3)C2)c(C(=O)Nc2ccc(C(=O)N3CCc4c(sc(C(=O)Nc5c(C)cccc5C#N)c4F)-c4ncccc43)cc2)c1 [Example 75] | < 10 nM
12 | Cc1cnc(N2CC3(CCOCC3)C2)c(C(=O)Nc2ccc(C(=O)N3CCc4c(sc(C(=O)Nc5c(F)cccc5Cl)c4F)-c4ncccc43)cc2)c1 [Example 76] | < 10 nM
13 | Cc1cnc(N2CC3(CCOCC3)C2)c(C(=O)Nc2ccc(C(=O)N3CCc4c(sc(-c5nc6ccc(F)cc6[nH]5)c4F)-c4ncccc43)cc2)c1 [Example 79] | < 10 nM
14 | Cc1ccc(C(=O)Nc2ccc(C(=O)N3CCc4c(sc(-c5nc6ccccc6[nH]5)c4F)-c4ncccc43)cc2)c(N2CC3(CCOCC3)C2)n1 [Example 82] | < 10 nM
15 | Cc1ccc(C(=O)Nc2ccc(C(=O)N3CCc4c(sc(C(=O)Nc5c(C)cccc5F)c4F)-c4ncccc43)cc2)c(N2CC3(CCOCC3)C2)n1 [Example 83] | < 10 nM
16 | Cc1ccc(C(=O)Nc2ccc(C(=O)N3CCc4c(sc(-c5nc6cccc(F)c6[nH]5)c4F)-c4ncccc43)cc2)c(N2CC3(CCOCC3)C2)n1 [Example 85] | < 10 nM
17 | Cc1ccc(C(=O)Nc2ccc(C(=O)N3CCc4c(sc(C(=O)Nc5c(F)cccc5Cl)c4F)-c4ncccc43)cc2)c(N2CC3(CCOCC3)C2)n1 [Example 86] | < 10 nM

Continued, values first:

Row | EC50 | SMILES
18 | < 10 nM | Cc1ccc(C(=O)Nc2ccc(C(=O)N3CCc4cc(C(=O)Nc5c(F)cccc5Cl)sc4-c4ncccc43)cc2)c(N2CC3(CCOCC3)C2)n1 [Example 44]
19 | < 10 nM | Cc1ccc(C(=O)Nc2ccc(C(=O)N3CCc4cc(-c5nc6cccc(F)c6[nH]5)sc4-c4ncccc43)cc2)c(N2CC3(CCOCC3)C2)n1 [Example 46]
20 | 10 to 50 nM | Cc1cnc(N2CC3(CCOCC3)C2)c(C(=O)Nc2ccc(C(=O)N3CCc4cc(C(=O)Nc5c(F)cccc5F)sc4-c4ncccc43)cc2F)c1 [Example 47]
21 | > 50 nM | Cc1cccc(F)c1NC(=O)c1cc2c(s1)-c1cccnc1N(C(=O)c1ccc(NC(=O)c3cccnc3N3CC4(CCOCC4)C3)cc1)CC2 [Example 50]
22 | 10 to 50 nM | O=C(Nc1c(F)cc(F)cc1Cl)c1cc2c(s1)-c1cnccc1N(C(=O)c1ccc(NC(=O)c3cccnc3N3CC4(CCOCC4)C3)cc1)CC2 [Example 52]
23 | > 50 nM | O=C(Nc1ccc(C(=O)N2CCc3cc(-c4nc5ccccc5[nH]4)sc3-c3cnccc32)cc1)c1cccnc1N1CC2(CCOCC2)C1 [Example 53]
24 | < 10 nM | O=C(Nc1c(F)cccc1F)c1cc2c(s1)-c1ncc(F)cc1N(C(=O)c1ccc(NC(=O)c3cccnc3N3CC4(CCOCC4)C3)cc1)CC2 [Example 55]
25 | 10 to 50 nM | O=C(Nc1ccc(C(=O)N2CCc3cc(-c4nc5cccc(Cl)c5[nH]4)sc3-c3ncc(F)cc32)cc1)c1cccnc1N1CC2(CCOCC2)C1 [Example 57]
26 | < 10 nM | Cc1cnc(N2CC3(CCOCC3)C2)c(C(=O)Nc2ccc(C(=O)N3CCc4cc(-c5nc6ccccc6[nH]5)sc4-c4ncc(F)cc43)cc2)c1 [Example 58]
27 | < 10 nM | O=C(Nc1c(F)cc(F)cc1Cl)c1cc2c(s1)-c1ncc(F)cc1N(C(=O)c1ccc(NC(=O)c3cccnc3N3CC4(CCOCC4)C3)cc1)CC2 [Example 59]
28 | < 10 nM | Cc1cccc(F)c1NC(=O)c1cc2c(s1)-c1ncc(F)cc1N(C(=O)c1ccc(NC(=O)c3cccnc3N3CC4(CCOCC4)C3)cc1)CC2 [Example 61]
29 | < 10 nM | Cc1cnc(N2CC3(CCOCC3)C2)c(C(=O)Nc2ccc(C(=O)N3CCc4cc(-c5nc6cccc(Cl)c6[nH]5)sc4-c4ncc(F)cc43)cc2)c1 [Example 63]
30 | < 10 nM | Cc1cnc(N2CC3(CCOCC3)C2)c(C(=O)Nc2ccc(C(=O)N3CCc4cc(-c5nc6cccc(F)c6[nH]5)sc4-c4ncc(F)cc43)cc2)c1 [Example 64]
31 | < 10 nM | Cc1cnc(N2CC3(CCOCC3)C2)c(C(=O)Nc2ccc(C(=O)N3CCc4cc(C(=O)Nc5c(Cl)cccc5Cl)sc4-c4ncc(F)cc43)cc2)c1 [Example 66]
32 | > 50 nM | Cc1cnc(N2CC3(CCOCC3)C2)c(C(=O)Nc2ccc(C(=O)N3CCc4cc(C(=O)Nc5c(F)cccc5C(F)(F)F)sc4-c4ncc(F)cc43)cc2)c1 [Example 67]
33 | < 10 nM | Cc1cnc(N2CC3(CCOCC3)C2)c(C(=O)Nc2ccc(C(=O)N3CCc4c(sc(C(=O)Nc5c(F)cccc5F)c4F)-c4ncccc43)cc2)c1 [Example 70, N-(2,6-difluorophenyl)-8-fluoro-5-(4-(5-methyl-2-(7-oxa-2-azaspiro[3.5]nonan-2-yl)nicotinamido)benzoyl)-6,7-dihydro-5H-pyrido[3,2-b]thieno[2,3-d]azepine-9-carboxamide]
34 | < 10 nM | Cc1cnc(N2CC3(CCOCC3)C2)c(C(=O)Nc2ccc(C(=O)N3CCc4c(sc(-c5nc6ccccc6[nH]5)c4F)-c4ncccc43)cc2)c1 [Example 71]
35 | < 10 nM | Cc1cnc(N2CC3(CCOCC3)C2)c(C(=O)Nc2ccc(C(=O)N3CCc4c(sc(C(=O)Nc5ncccc5F)c4F)-c4ncccc43)cc2)c1 [Example 72]
36 | < 10 nM | Cc1cnc(N2CC3(CCOCC3)C2)c(C(=O)Nc2ccc(C(=O)N3CCc4c(sc(C(=O)Nc5ccccc5)c4F)-c4ncccc43)cc2)c1 [Example 74]
37 | 10 to 50 nM | Cc1cnc(N2CC3(CCOCC3)C2)c(C(=O)Nc2ccc(C(=O)N3CCc4c(sc(C(=O)Nc5c(F)cccc5C(F)(F)F)c4F)-c4ncccc43)cc2)c1 [Example 77]
38 | < 10 nM | Cc1cnc(N2CC3(CCOCC3)C2)c(C(=O)Nc2ccc(C(=O)N3CCc4c(sc(-c5nc6cccc(F)c6[nH]5)c4F)-c4ncccc43)cc2)c1 [Example 78]
39 | < 10 nM | Cc1ccc(C(=O)Nc2ccc(C(=O)N3CCc4c(sc(C(=O)Nc5c(F)cccc5F)c4F)-c4ncccc43)cc2)c(N2CC3(CCOCC3)C2)n1 [Example 81]
40 | < 10 nM | Cc1ccc(C(=O)Nc2ccc(C(=O)N3CCc4c(sc(C(=O)Nc5ncccc5F)c4F)-c4ncccc43)cc2)c(N2CC3(CCOCC3)C2)n1 [Example 84]
41 | < 10 nM | Cc1ccc(C(=O)Nc2ccc(C(=O)N3CCc4c(sc(C(=O)Nc5c(F)cccc5C(F)(F)F)c4F)-c4ncccc43)cc2)c(N2CC3(CCOCC3)C2)n1 [Example 87]
42 | < 10 nM | Cc1ccc(C(=O)Nc2ccc(C(=O)N3CCc4c(sc(-c5nc6ccc(F)cc6[nH]5)c4F)-c4ncccc43)cc2)c(N2CC3(CCOCC3)C2)n1 [Example 88]
43 | < 10 nM | Cc1cnc(N2CCC3(CC2)COC3)c(C(=O)Nc2ccc(C(=O)N3CCc4cc(C(=O)Nc5c(F)cccc5F)sc4-c4ncccc43)cc2)c1 [Example 89]

Source: patent publication US10851115B2, “Heterocyclic compounds as RSV inhibitors” (Enanta Pharmaceuticals, Inc., priority 2017, dated 2020)
